SMILES strings stand for the structures. Some results are limits rather than exact numbers.

The values that follow come from US7659270B2, “Hepatitis C virus inhibitors” (Bristol-Myers Squibb Company, priority 2006, dated 2010).

The test system of this assay is HCV 1b-377-neo replicon cells. Nature of the assay: HCV replicon assay (HCV 1b-377-neo replicon cells). In kind it is cell-based, Hepatitis C virus genotype 1b. Also noted: EC50 range against HCV 1b (Range): scale not given here. The note with it: for EC50: Hepatitis C virus, read-out: EC50 range against HCV 1b (Range). The gist of the method: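 HCV genotype 1b (1b-377-neo) replicon cells, run as a validated replicon assay; parallel testing in replicon cells carrying the NS5A Y2065H resistance mutation.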

For `COC(=O)N[C@H](C(=O)N1CCC[C@H]1c1nc(-c2cnc(-c3ccc(-c4cnc([C@@H]5CCCN5C(=O)[C@@H](NC(=O)OC)C5CC5)[nH]4)cc3)nc2)c[nH]1)C1CC1` [Example D75, methyl ((1S)-1-cyclopropyl-2-((2S)-2-(5-(2-(4-(2-((2S)-1-((2S)-2-cyclopropyl-2-((methoxy-carbonyl)amino)ace-tyl)-2-pyrroli-dinyl)-1H-imidazol-5-yl)phenyl)-5-pyrimi-dinyl)-1H-imida-zol-2-yl)-1-pyrroli-dinyl)-2-oxoeth-yl)carbamate], the EC50 lay within 0.01 to 0.999 nM.

With `CCN(CC)[C@@H](C(=O)N1CCC[C@H]1c1ncc(-c2ccc(-c3ncc(-c4c[nH]c([C@@H]5CCCN5C(=O)[C@@H](NC(=O)OC)C(C)C)n4)cn3)cc2)[nH]1)c1ccccc1` [Example D76, methyl ((1S)-1-(((2S)-2-(5-(2-(4-(2-((2S)-1-((2R)-2-(diethyl-amino)-2-phenyl-acetyl)-2-pyrroli-dinyl)-1H-imidazol-5-yl)phenyl)-5-pyrimi-dinyl)-1H-imida-zol-2-yl)-1-pyrroli-dinyl)carbon-yl)-2-methylpro-pyl)carba-mate], the EC50 was 0.01 to 0.999 nM.

On to `CCN(CC)[C@@H](C(=O)N1CCC[C@H]1c1ncc(-c2ccc(-c3ncc(-c4c[nH]c([C@@H]5CCCN5C(=O)[C@H](C)NC(=O)OC)n4)cn3)cc2)[nH]1)c1ccccc1` [Example D77, methyl ((1S)-2-((2S)-2-(5-(2-(4-(2-((2S)-1-((2R)-2-(diethyl-amino)-2-phenyl-acetyl)-2-pyrroli-dinyl)-1H-imidazol-5-yl)phenyl)-5-pyrimi-dinyl)-1H-imida-zol-2-yl)-1-pyrrolidinyl)-1-methyl-2-oxoeth-yl)carbamate], for which the EC50 is 0.01 to 0.999 nM.

As for `COC(=O)N[C@H](C(=O)N1CCCC1c1ncc(-c2cc(C)c(-c3c(C)cc(-c4cnc([C@@H]5CCCN5C(=O)[C@@H](NC(=O)OC)C(C)C)[nH]4)cc3C)c(C)c2)[nH]1)C(C)C` (stereo partly shown) [Example F71], the EC50 lay in the range of 0.01 to 0.999 nM.

On to `COC(=O)N[C@@H](C)C(=O)N(C)[C@@H](C)c1ncc(-c2ccc(-c3ccc(-c4[nH]c([C@@H]5CCCN5C(=O)[C@H](C)NC(=O)OC)nc4C(F)(F)F)cc3)cc2)[nH]1` [Example J42.a, methyl ((1S)-2-((2S)-2-(5-(4′-(2-((1S)-1-((N-(methoxy-carbonyl)-L-alanyl)(meth-yl)ami-no)ethyl)-1H-imidazol-5-yl)-4-biphenylyl)-4-(trifluoromethyl)-1H-imida-zol-2-yl)-1-pyrrolidinyl)-1-methyl-2-oxoeth-yl)carbamate], for which the EC50 lay in the range of 0.01 to 0.999 nM.

For `COC(=O)NC(C(=O)N1CCC[C@H]1c1ncc(-c2cnc(-c3ccc(-c4[nH]c([C@@H]5CCCN5C(=O)C(NC(=O)OC)c5ccccc5)nc4C(F)(F)F)cc3)nc2)[nH]1)c1ccccc1` (stereo partly drawn) [Example J46, methyl ((1R)-2-((2S)-2-(5-(4-(5-(2-((2S)-1-((2R)-2-((methoxy-carbonyl)amino)-2-phenylacetyl)-2-pyrrolidinyl)-1H-imidazol-5-yl)-2-pyrimi-dinyl)phenyl)-4-(trifluoromethyl)-1H-imida-zol-2-yl)-1-pyrrolidinyl)-2-oxo-1-phenyleth-yl)carbamate], the EC50 fell in the range of 0.01 to 0.999 nM.

With `CCN(CC)[C@@H](C(=O)N1CCC[C@H]1c1ncc(-c2cnc(-c3ccc(-c4[nH]c([C@@H]5CCCN5C(=O)[C@@H](c5ccccc5)N(CC)CC)nc4C(F)(F)F)cc3)nc2)[nH]1)c1ccccc1` [Example J47, (1R)-2-((2S)-2-(5-(4-(5-(2-((2S)-1-((2R)-2-(diethylamino)-2-phenylacetyl)-2-pyrrolidinyl)-1H-imidazol-5-yl)-2-pyrimi-dinyl)phenyl)-4-(trifluoromethyl)-1H-imida-zol-2-yl)-1-pyrrolidinyl)-N,N-dieth-yl-2-oxo-1-phenylethanamine], the EC50 was in the range of 0.01 to 0.999 nM.

For `COC(=O)N[C@H](C(=O)N1CCC[C@H]1c1ncc(-c2cnc(-c3ccc(-c4[nH]c([C@@H]5CCCN5C(=O)[C@@H](NC(=O)OC)C(C)C)nc4C(F)(F)F)cc3)nc2)[nH]1)C(C)C` [Example J48, methyl ((1S)-1-(((2S)-2-(5-(2-(4-(2-((2S)-1-((2S)-2-((methoxy-carbonyl)amino)-3-methyl-butanoyl)-2-pyrrolidinyl)-4-(trifluoromethyl)-1H-imidazol-5-yl)phenyl)-5-pyrimidinyl)-1H-imidazol-2-yl)-1-pyrroli-dinyl)carbon-yl)-2-methylpro-pyl)carba-mate], the EC50 fell in the range of 0.01 to 0.999 nM.

Take `COC(=O)N[C@H](C(=O)N1CCC[C@H]1c1ncc(-c2cnc(-c3ccc(-c4[nH]c([C@@H]5CCCN5C(=O)[C@@H](NC(=O)OC)C5CC5)nc4C(F)(F)F)cc3)nc2)[nH]1)C1CC1` [Example J49, methyl ((1S)-1-cyclopropyl-2-((2S)-2-(5-(4-(5-(2-((2S)-1-((2S)-2-cyclopropyl-2-((methoxy-carbonyl)amino)acetyl)-2-pyrrolidinyl)-1H-imidazol-5-yl)-2-pyrimi-dinyl)phenyl)-4-(trifluoromethyl)-1H-imida-zol-2-yl)-1-pyrrolidinyl)-2-oxoeth-yl)carbamate]: the EC50 fell in the range of 0.01 to 0.999 nM.

Consider `COC(=O)N[C@@H](C)C(=O)N1CCC[C@H]1c1ncc(-c2cnc(-c3ccc(-c4[nH]c([C@@H]5CCCN5C(=O)[C@H](C)NC(=O)OC)nc4C(F)(F)F)cc3)nc2)[nH]1` [Example J50, methyl ((1S)-2-((2S)-2-(5-(4-(5-(2-((2S)-1-(N-(methoxy-carbonyl)-L-alanyl)-2-pyrrolidinyl)-1H-imidazol-5-yl)-2-pyrimi-dinyl)phenyl)-4-(trifluoromethyl)-1H-imida-zol-2-yl)-1-pyrrolidinyl)-1-methyl-2-oxoeth-yl)carbamate], for which the EC50 is 0.01 to 0.999 nM.

Consider `CCN(CC)[C@H](C)C(=O)N1CCC[C@H]1c1ncc(-c2cnc(-c3ccc(-c4[nH]c([C@@H]5CCCN5C(=O)[C@H](C)N(CC)CC)nc4C(F)(F)F)cc3)nc2)[nH]1` [Example J51, (2R)-1-((2S)-2-(5-(4-(5-(2-((2S)-1-((2R)-2-(diethyl-amino)prop-anoyl)-2-pyrrolidinyl)-1H-imidazol-5-yl)-2-pyrimi-dinyl)phenyl)-4-(trifluoromethyl)-1H-imida-zol-2-yl)-1-pyrrolidinyl)-N,N-dieth-yl-1-oxo-2-propanamine], for which the EC50 was in the range of 1 to 99 nM.

As for `COC(=O)N[C@H](C(=O)N1CCC[C@H]1c1ncc(-c2ccc(-c3ccc(-c4cnc([C@@H]5CCCN5C(=O)[C@@H](NC(=O)OC)C(C)C)[nH]4)cc3C(=O)O)cc2)[nH]1)C(C)C` [Example M114, 4,4′-bis(2-((2S)-1-(N-(methoxycarbonyl)-L-valyl)-2-pyrrolidinyl)-1H-imidazol-5-yl)-2-biphenylcarboxylic acid], the “EC50 range against HCV 1b (Range)” value was “>A”.

For the molecule `COC(=O)N[C@H](C(=O)N1CCC[C@H]1c1ncc(-c2ccc(-c3ccc(-c4cnc([C@@H]5CCCN5C(=O)[C@@H](NC(=O)OC)C(C)C)[nH]4)cc3C(N)=O)cc2)[nH]1)C(C)C` [Example M118, methyl((1S)-1-(((2S)-2-(5-(2′-carbamoyl-4′-(2-((2S)-1-((2S)-2-((methoxycarbonyl)amino)-3-methylbutanoyl)-2-pyrrolidinyl)-1H-imidazol-5-yl)-4-biphenylyl)-1H-imidazol-2-yl)-1-pyrrolidinyl)carbonyl)-2-methylpropyl)carbamate], the “EC50 range against HCV 1b (Range)” value is “>A”.

As a reminder, the EC50 is the concentration needed to bring the measured effect to its halfway point.
